The values below come from ChEMBL document CHEMBL1201862, “PubChem BioAssay data set” (2004).

The structures appear in SMILES notation. Active and inactive are the calls of the source. Cut-off read from the data, not from the text of the source, for most assays here: active = IC50 of 10 µM or less and inactive = more. Some results are limits rather than exact numbers.

Holding throughout (type): functional
The subject of one test is CHO-K1. Briefly: Counterscreen for antagonists of the orexin 1 receptor (OX1R; HCRTR1): Homogeneous time resolved fluorescence (HTRF)-based cell-based dose response assay to identify antagonists of the parental CHO-K1 cell line. [Related pubchem assays (depositor defined):AID434989, AID435008, AID463079, AID485270, AID492963, AID492964, AID492965, AID493232, AID504699, AID504701]. Conditions: Cricetulus griseus.

Test [1] in a line: Counterscreen for antagonists of the orexin 1 receptor (OX1R; HCRTR1): Fluorescence-based cell-based high throughput dose response assay to identify antagonists of the parental CHO cell line. [Related pubchem assays (depositor defined):AID434989, AID435008, AID463079, AID485270, AID492963, AID492964, AID492965, AID493232, AID504699, AID504701]. For orientation: Counterscreens check selectivity or assay interference.

Test [2] has as its target T1, Orexin/Hypocretin receptor type 1 (Homo sapiens, UniProt O43613).
T1 sequence (O43613 whole entry): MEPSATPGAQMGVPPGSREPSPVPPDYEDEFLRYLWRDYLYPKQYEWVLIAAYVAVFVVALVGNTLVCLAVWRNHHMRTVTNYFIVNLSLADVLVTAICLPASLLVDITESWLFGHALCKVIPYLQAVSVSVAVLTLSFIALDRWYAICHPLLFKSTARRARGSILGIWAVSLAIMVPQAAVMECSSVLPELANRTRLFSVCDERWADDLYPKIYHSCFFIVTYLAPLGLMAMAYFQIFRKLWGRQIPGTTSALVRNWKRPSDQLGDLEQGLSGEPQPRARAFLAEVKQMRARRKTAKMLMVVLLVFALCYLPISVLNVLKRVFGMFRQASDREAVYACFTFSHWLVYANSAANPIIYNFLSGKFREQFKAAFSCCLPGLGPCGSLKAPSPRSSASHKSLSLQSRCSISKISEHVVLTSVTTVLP
The test is described as follows: Homogeneous Time Resolved Fluorescence (HTRF)-based cell-based high throughput dose response assay for antagonists of the orexin 1 receptor (OX1R; HCRTR1). [Related pubchem assays (depositor defined):AID434989, AID435008, AID463079, AID485270, AID492963, AID492964, AID492965, AID493232, AID504717, AID504718]. (Time-resolved FRET reads energy transfer from a long-lived donor to a nearby acceptor.)

Test [3] concerns the target T1, Orexin/Hypocretin receptor type 1. Briefly: Fluorescence-based cell-based high throughput dose response assay for antagonists of the orexin 1 receptor (OX1R; HCRTR1). [Related pubchem assays (depositor defined):AID434989, AID435008, AID463079, AID485270, AID492963, AID492964, AID492965, AID493232, AID504717, AID504718].
Test [4] addresses T2, Orexin receptor type 2 (Homo sapiens, UniProt O43614).
T2 sequence (O43614 whole entry): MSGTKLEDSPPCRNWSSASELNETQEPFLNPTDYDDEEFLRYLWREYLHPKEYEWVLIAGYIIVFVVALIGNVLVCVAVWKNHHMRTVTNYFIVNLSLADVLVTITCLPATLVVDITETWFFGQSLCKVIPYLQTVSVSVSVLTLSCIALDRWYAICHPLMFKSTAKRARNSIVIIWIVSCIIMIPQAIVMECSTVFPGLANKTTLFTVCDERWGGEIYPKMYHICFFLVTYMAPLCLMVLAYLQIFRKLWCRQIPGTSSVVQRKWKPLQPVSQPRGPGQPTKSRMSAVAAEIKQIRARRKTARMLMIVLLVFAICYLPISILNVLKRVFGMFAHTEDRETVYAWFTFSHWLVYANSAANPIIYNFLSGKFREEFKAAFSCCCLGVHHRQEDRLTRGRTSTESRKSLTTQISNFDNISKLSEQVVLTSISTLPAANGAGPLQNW
The test is described as follows: Counterscreen assay for antagonists of the orexin 1 receptor (OX1R; HCRTR1): Fluorescence-based cell-based dose response assay for antagonists of the orexin 2 receptor (OX2R; HCRTR2), run by assay provider.

Test [5] addresses T2, Orexin receptor type 2. The test is described as follows: Counterscreen assay for antagonists of the orexin 1 receptor (OX1R; HCRTR1): Homogeneous Time Resolved Fluorescence (HTRF)-based cell-based dose response assay for antagonists of the orexin 2 receptor (OX2R; HCRTR2), run by assay provider.

What is called IC50 is the concentration that gives 50% inhibition. As to `CSc1cccc(NC(=O)C2CCCN(S(=O)(=O)c3cccs3)C2)c1` (configuration not stated), the IC50 was > 66.2 µM (inactive) in the test with CHO-K1; > 49.7 µM (inactive) in test [1]; 0.546 µM (active) in test [2]; 6.4 µM (active) in test [3]; 5.3 µM (active) at Orexin receptor type 2 [4]; > 50 µM (inactive) on Orexin receptor type 2 [5].

Regarding `Cn1c2ccccc2c(=O)c2cc(C#Cc3cccc(N)c3)ccc21`, the IC50 with CHO-K1 is > 66.3 µM (inactive); in test [1], > 49.8 µM (inactive); in test [2], 1.5 µM (active); in test [3], 1.69 µM (active); on Orexin receptor type 2 [4] it was > 88.8 µM (inactive); on Orexin receptor type 2 [5], 0.07 µM (active).
